The results in this text go back to patent US12653814B2, “Benzimidazolone-based cinnamamide derivative as TRPV1 antagonist and pharmaceutical composition for treatment or prevention of pain containing same as active ingredient” (JMACKEM CO., LTD, priority 2020, dated 2026).

Assay [1] has as its target T1, human TRPV1 (hTRPV1) (Homo sapiens, UniProt Q8NER1).
T1 construct: host or cells: HEK (PrecisION hTRPV1-HEK recombinant cell line)
Kind of assay: Ca2+ influx assay, antagonism against capsaicin in hTRPV1-HEK recombinant cells. In kind it is cell-based. As to conditions: capsaicin 10 nM as activator, Fluo4-NW fluorescence, read-out: hTRPV1 IC50 [cap].

Assay [2] addresses T1, human TRPV1 (hTRPV1). Nature of the assay: Evaluation of human pH inhibitory activity in hTRPV1-HEK recombinant cells. In kind it is cell-based. To be noted: inhibition of activation at final pH 6.0, test substance 3 μM. As to the method: Evaluation of Human pH Inhibitory Activity
PrecisION™ hTRPV1-HEK recombinant cells (CYL3063) were purchased from Millipore and used. After culturing the above cells under the conditions of 37° C. and 5% CO2, the cells were inoculated in a 96-well plate at the density of 5×10^4 cells/well, followed by culture for 16 hours. Then, the medium was removed and 100 uL of a staining solution was put into each well, followed by culture for 30 minutes under the conditions of 37° C. and 5% CO2. After 30 minutes, all of the existing staining solution was removed and replaced with 100 uL of HBSS. Thereafter, the cells were acclimatized to room temperature for 15 minutes, and the test substances (example compounds and comparative example compounds of the present invention) were added to each well, followed by culture at room temperature for 15 minutes. Then, the final pH was adjusted to 6.0 using MES, and fluorescence was measured (ex485/em535). In the pH assay, the efficacy of the drug was evaluated using BCTC as a TRPV1 antagonist.

T1 sequence (Q8NER1 whole entry): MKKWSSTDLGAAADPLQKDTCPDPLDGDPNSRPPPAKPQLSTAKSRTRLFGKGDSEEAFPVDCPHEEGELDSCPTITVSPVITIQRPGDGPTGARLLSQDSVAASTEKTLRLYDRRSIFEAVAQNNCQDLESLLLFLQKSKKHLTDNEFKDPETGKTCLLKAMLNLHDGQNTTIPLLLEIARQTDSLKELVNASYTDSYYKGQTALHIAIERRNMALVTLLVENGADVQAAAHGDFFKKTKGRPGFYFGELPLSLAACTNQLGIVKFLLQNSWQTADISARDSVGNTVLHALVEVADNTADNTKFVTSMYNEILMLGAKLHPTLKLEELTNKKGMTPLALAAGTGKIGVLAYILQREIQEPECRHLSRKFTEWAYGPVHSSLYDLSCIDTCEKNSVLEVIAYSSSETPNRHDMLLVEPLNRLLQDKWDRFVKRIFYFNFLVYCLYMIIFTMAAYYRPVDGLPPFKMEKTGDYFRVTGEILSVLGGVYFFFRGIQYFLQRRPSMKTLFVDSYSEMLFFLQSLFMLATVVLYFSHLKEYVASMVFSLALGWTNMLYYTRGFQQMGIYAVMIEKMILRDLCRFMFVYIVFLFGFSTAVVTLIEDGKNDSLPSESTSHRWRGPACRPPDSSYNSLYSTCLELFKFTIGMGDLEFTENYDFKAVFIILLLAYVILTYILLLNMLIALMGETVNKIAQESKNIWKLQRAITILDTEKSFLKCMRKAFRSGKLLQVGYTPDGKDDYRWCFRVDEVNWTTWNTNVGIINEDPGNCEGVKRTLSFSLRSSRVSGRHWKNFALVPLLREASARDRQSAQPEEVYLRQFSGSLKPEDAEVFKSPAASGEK

Take `CC1CC1COc1nc(C(F)(F)F)ccc1/C=C/C(=O)Nc1cccc2[nH]c(=O)[nH]c12` (stereo not drawn) [Example 16, (E)-3-(2-((2-methylcyclopropyl)methoxy)-6-(trifluoromethyl)pyridin-3-yl)-N-(2-oxo-2,3-dihydro-1H-benzo[d]imidazol-4-yl)acrylamide]: on human TRPV1 (hTRPV1) [1], the IC50 was found to be 86 nM. The “hTRPV1 pH (%, 3 μM)” value at human TRPV1 (hTRPV1) [2] came out at 97.34%.

Consider `O=C(/C=C/c1ccc(C(F)(F)Cl)nc1OCC1CC1)Nc1cccc2[nH]c(=O)[nH]c12` [Example 17, (E)-3-(6-(chlorodifluoromethyl)-2-(cyclopropylmethoxy)pyridin-3-yl)-N-(2-oxo-2,3-dihydro-1H-benzo[d]imidazol-4-yl)acrylamide], for which the IC50 on human TRPV1 (hTRPV1) [1] amounted to 56.9 nM. Besides, the “hTRPV1 pH (%, 3 μM)” value at human TRPV1 (hTRPV1) [2] turned out to be 83.20%.

`CC1(c2ccc(/C=C/C(=O)Nc3cccc4[nH]c(=O)[nH]c34)c(OCC3CC3)n2)CC1` [Example 20, (E)-3-(2-(cyclopropylmethoxy)-6-(1-methylcyclopropyl)pyridin-3-yl)-N-(2-oxo-2,3-dihydro-1H-benzo[d]imidazol-4-yl)acrylamide]: the IC50 on human TRPV1 (hTRPV1) [1] is 53.5 nM. For the same compound, the “hTRPV1 pH (%, 3 μM)” value at human TRPV1 (hTRPV1) [2] turned out to be 86.79%.

Regarding `O=C(/C=C/c1ccc(C(F)F)nc1OCC1CC1)Nc1cccc2[nH]c(=O)[nH]c12` [Example 21, (E)-3-(2-(cyclopropylmethoxy)-6-(difluoromethyl)pyridin-3-yl)-N-(2-oxo-2,3-dihydro-1H-benzo[d]imidazol-4-yl)acrylamide], on human TRPV1 (hTRPV1) [1], the IC50 was 26.1 nM. Also, the “hTRPV1 pH (%, 3 μM)” value on human TRPV1 (hTRPV1) [2] is 79.89%.

As to `CC(F)(F)c1ccc(/C=C/C(=O)Nc2cccc3[nH]c(=O)[nH]c23)c(OCC2CC2)n1` [Example 22, (E)-3-(2-(cyclopropylmethoxy)-6-(1,1-difluoroethyl)pyridin-3-yl)-N-(2-oxo-2,3-dihydro-1H-benzo[d]imidazol-4-yl)acrylamide], the IC50 on human TRPV1 (hTRPV1) [1] turned out to be 31.2 nM. The “hTRPV1 pH (%, 3 μM)” value on human TRPV1 (hTRPV1) [2] is given as 90.86%.

In the case of `O=C(/C=C/c1ccc(C(F)(F)F)nc1OCC1CCC1)Nc1cccc2[nH]c(=O)[nH]c12` [Example 25, (E)-3-(2-(cyclobutylmethoxy)-6-(trifluoromethyl)pyridin-3-yl)-N-(2-oxo-2,3-dihydro-1H-benzo[d]imidazol-4-yl)acrylamide], on human TRPV1 (hTRPV1) [1], the IC50 came to 34.1 nM. Besides, the “hTRPV1 pH (%, 3 μM)” value on human TRPV1 (hTRPV1) [2] is given as 89.76%.

Consider `O=C(/C=C/c1ccc(C(F)(F)F)nc1OCC1CCCC1)Nc1cccc2[nH]c(=O)[nH]c12` [Example 26, (E)-3-(2-(cyclopentylmethoxy)-6-(trifluoromethyl)pyridin-3-yl)-N-(2-oxo-2,3-dihydro-1H-benzo[d]imidazol-4-yl)acrylamide], for which the IC50 at human TRPV1 (hTRPV1) [1] worked out at 54.4 nM. In addition, the “hTRPV1 pH (%, 3 μM)” value at human TRPV1 (hTRPV1) [2] is 95.11%.

As for `CC(C)CSc1nc(C(F)(F)F)ccc1/C=C/C(=O)Nc1cccc2[nH]c(=O)[nH]c12` [Example 27, (E)-3-(2-(isobutylthio)-6-(trifluoromethyl)pyridin-3-yl)-N-(2-oxo-2,3-dihydro-1H-benzo[d]imidazol-4-yl)acrylamide], the IC50 at human TRPV1 (hTRPV1) [1] came to 40.9 nM. Moreover, at human TRPV1 (hTRPV1) [2], the “hTRPV1 pH (%, 3 μM)” value worked out at 78.45%.

As to `O=C(/C=C/c1ccc(C(F)(F)F)nc1-c1cccc(F)c1)Nc1cccc2[nH]c(=O)[nH]c12` [Example 30, (E)-3-(2-(3-fluorophenyl)-6-(trifluoromethyl)pyridin-3-yl)-N-(2-oxo-2,3-dihydro-1H-benzo[d]imidazol-4-yl)acrylamide], the IC50 on human TRPV1 (hTRPV1) [1] amounted to 14.2 nM. For the same compound, at human TRPV1 (hTRPV1) [2], the “hTRPV1 pH (%, 3 μM)” value is 48.62%.

For `O=C(/C=C/c1ccc(C(F)(F)F)nc1-c1cccc(Cl)c1)Nc1cccc2[nH]c(=O)[nH]c12` [Example 31, (E)-3-(2-(3-chlorophenyl)-6-(trifluoromethyl)pyridin-3-yl)-N-(2-oxo-2,3-dihydro-1H-benzo[d]imidazol-4-yl)acrylamide], the IC50 on human TRPV1 (hTRPV1) [1] amounted to 26 nM. The “hTRPV1 pH (%, 3 μM)” value at human TRPV1 (hTRPV1) [2] is given as 82.34%.

Regarding `CC(C)c1cccc(-c2nc(C(F)(F)F)ccc2/C=C/C(=O)Nc2cccc3[nH]c(=O)[nH]c23)c1` [Example 32, (E)-3-(2-(3-isopropylphenyl)-6-(trifluoromethyl)pyridin-3-yl)-N-(2-oxo-2,3-dihydro-1H-benzo[d]imidazol-4-yl)acrylamide], the IC50 at human TRPV1 (hTRPV1) [1] is 23.7 nM. At human TRPV1 (hTRPV1) [2], the “hTRPV1 pH (%, 3 μM)” value was determined as 67.88%.

For the compound `O=C(/C=C/c1ccc(C(F)(F)F)nc1-c1ccc(F)c(Cl)c1)Nc1cccc2[nH]c(=O)[nH]c12` [Example 33, (E)-3-(2-(3-chloro-4-fluorophenyl)-6-(trifluoromethyl)pyridin-3-yl)-N-(2-oxo-2,3-dihydro-1H-benzo[d]imidazol-4-yl)acrylamide], at human TRPV1 (hTRPV1) [1], the IC50 was determined as 27.4 nM. Besides, the “hTRPV1 pH (%, 3 μM)” value at human TRPV1 (hTRPV1) [2] is recorded as 69.89%.

`O=C(/C=C/c1ccc(C(F)(F)F)nc1-c1ccc(F)cc1)Nc1cccc2[nH]c(=O)[nH]c12` [Example 34, (E)-3-(2-(4-fluorophenyl)-6-(trifluoromethyl)pyridin-3-yl)-N-(2-oxo-2,3-dihydro-1H-benzo[d]imidazol-4-yl)acrylamide]: at human TRPV1 (hTRPV1) [1], the IC50 came out at 11.1 nM. Besides, on human TRPV1 (hTRPV1) [2], the “hTRPV1 pH (%, 3 μM)” value came to 37.85%.

As for `O=C(/C=C/c1ccc(C(F)(F)F)nc1-c1cccs1)Nc1cccc2[nH]c(=O)[nH]c12` [Example 35, (E)-N-(2-oxo-2,3-dihydro-1H-benzo[d]imidazol-4-yl)-3-(2-(thiophen-2-yl)-6-(trifluoromethyl)pyridin-3-yl)acrylamide], the IC50 on human TRPV1 (hTRPV1) [1] was determined as 11.8 nM. Besides, on human TRPV1 (hTRPV1) [2], the “hTRPV1 pH (%, 3 μM)” value is recorded as 95.87%.

With `O=C(/C=C/c1ccc(C(F)(F)F)nc1-c1ccco1)Nc1cccc2[nH]c(=O)[nH]c12` [Example 36, (E)-3-(2-(furan-2-yl)-6-(trifluoromethyl)pyridin-3-yl)-N-(2-oxo-2,3-dihydro-1H-benzo[d]imidazol-4-yl)acrylamide], at human TRPV1 (hTRPV1) [1], the IC50 is 11 nM. The “hTRPV1 pH (%, 3 μM)” value on human TRPV1 (hTRPV1) [2] is 100.46%.

Regarding `CC(C)(C)C#Cc1nc(C(F)(F)F)ccc1/C=C/C(=O)Nc1cccc2[nH]c(=O)[nH]c12` [Example 39, (E)-3-(2-(3,3-dimethyl-1-butyn-1-yl)-6-(trifluoromethyl)pyridin-3-yl)-N-(2-oxo-2,3-dihydro-1H-benzo[d]imidazol-4-yl)acrylamide], at human TRPV1 (hTRPV1) [1], the IC50 was found to be 35.4 nM. The “hTRPV1 pH (%, 3 μM)” value on human TRPV1 (hTRPV1) [2] amounted to 67.89%.

Regarding `CC(C)COc1cc(C(F)(F)F)ccc1/C=C/C(=O)Nc1cccc2[nH]c(=O)[nH]c12` [Example 42, (E)-3-(2-isobutoxy-4-(trifluoromethyl)phenyl)-N-(2-oxo-2,3-dihydro-1H-benzo[d]imidazol-4-yl)acrylamide], the IC50 at human TRPV1 (hTRPV1) [1] was 35.4 nM. Moreover, the “hTRPV1 pH (%, 3 μM)” value on human TRPV1 (hTRPV1) [2] worked out at 78.89%.

Regarding `O=C(/C=C/c1ccc(C(F)(F)F)cc1OCC1CC1)Nc1cccc2[nH]c(=O)[nH]c12` [Example 43, (E)-3-(2-(cyclopropylmethoxy)-4-(trifluoromethyl)phenyl)-N-(2-oxo-2,3-dihydro-1H-benzo[d]imidazol-4-yl)acrylamide], the IC50 at human TRPV1 (hTRPV1) [1] was 19.7 nM. The “hTRPV1 pH (%, 3 μM)” value at human TRPV1 (hTRPV1) [2] was found to be 87.68%.

As to `CC(C)(C)c1ccc(/C=C/C(=O)Nc2cccc3[nH]c(=O)[nH]c23)c(OCC2CC2)c1` [Example 45, (E)-3-(4-(tert-butyl)-2-(cyclopropylmethoxy)phenyl)-N-(2-oxo-2,3-dihydro-1H-benzo[d]imidazol-4-yl)acrylamide], the IC50 at human TRPV1 (hTRPV1) [1] was 79.3 nM. At human TRPV1 (hTRPV1) [2], the “hTRPV1 pH (%, 3 μM)” value came to 48.71%.

In the case of `O=C(/C=C/c1ccc(C2CC2)cc1OCC1CC1)Nc1cccc2[nH]c(=O)[nH]c12` [Example 46, (E)-3-(4-cyclopropyl-2-(cyclopropylmethoxy)phenyl)-N-(2-oxo-2,3-dihydro-1H-benzo[d]imidazol-4-yl)acrylamide], the IC50 on human TRPV1 (hTRPV1) [1] was found to be 72.9 nM. Also, the “hTRPV1 pH (%, 3 μM)” value on human TRPV1 (hTRPV1) [2] came out at 57.38%.

On to `O=C(/C=C/c1cc(C(F)(F)F)nn1-c1cccc(Cl)c1)Nc1cccc2[nH]c(=O)[nH]c12` [Example 47, (E)-3-(1-(3-chlorophenyl)-3-(trifluoromethyl)-1H-pyrazol-5-yl)-N-(2-oxo-2,3-dihydro-1H-benzo[d]imidazol-4-yl)acrylamide], for which the IC50 at human TRPV1 (hTRPV1) [1] came to 15.9 nM. The “hTRPV1 pH (%, 3 μM)” value at human TRPV1 (hTRPV1) [2] came out at 37.26%.

For `Cc1cccc(-n2nc(C(F)(F)F)cc2/C=C/C(=O)Nc2cccc3[nH]c(=O)[nH]c23)c1` [Example 48, (E)-N-(2-oxo-2,3-dihydro-1H-benzo[d]imidazol-4-yl)-3-(1-(m-tolyl)-3-(trifluoromethyl)-1H-pyrazol-5-yl)acrylamide], the IC50 at human TRPV1 (hTRPV1) [1] was found to be 9.95 nM. In addition, the “hTRPV1 pH (%, 3 μM)” value on human TRPV1 (hTRPV1) [2] was 29.43%.

As to `O=C(/C=C/c1cc(C(F)(F)F)nn1-c1ccc(F)c(Cl)c1)Nc1cccc2[nH]c(=O)[nH]c12` [Example 49, (E)-3-(1-(3-chloro-4-fluorophenyl)-3-(trifluoromethyl)-1H-pyrazol-5-yl)-N-(2-oxo-2,3-dihydro-1H-benzo[d]imidazol-4-yl)acrylamide], the IC50 on human TRPV1 (hTRPV1) [1] came to 19.9 nM. Also, on human TRPV1 (hTRPV1) [2], the “hTRPV1 pH (%, 3 μM)” value stood at 21.37%.

`CC(C)c1cccc(-n2nc(C(F)(F)F)cc2/C=C/C(=O)Nc2cccc3[nH]c(=O)[nH]c23)c1` [Example 50, (E)-3-(1-(3-isopropylphenyl)-3-(trifluoromethyl)-1H-pyrazol-5-yl)-N-(2-oxo-2,3-dihydro-1H-benzo[d]imidazol-4-yl)acrylamide]: the IC50 at human TRPV1 (hTRPV1) [1] came out at 41.3 nM. In addition, on human TRPV1 (hTRPV1) [2], the “hTRPV1 pH (%, 3 μM)” value came out at 34.22%.
